Source: patent US20240376097A1, “BCL-2 Inhibitor” (BeiGene Ltd., priority 2020, published 2024)
Like-named read-outs stand apart in the source and are kept apart here.

Experiments:
[1] = target: Recombinant human Bcl-2 protein (Homo sapiens (Human), UniProt P10415); assay: Bcl-2 TR-FRET Assay; assay type: binding
Outline: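 Displacement of FITC-labelled Bak peptide (0.5 nM) from 0.05 nM human Bcl-2, detected by TR-FRET with Tb-cryptate anti-6His antibody after 1 h at room temperature. Compounds, 10-point series, preincubated 0.5 h with protein in 20 mM potassium phosphate pH 7.5, 50 mM NaCl. IC50s fitted by four-parameter logistic.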

[2] = test system: RS4;11 (BCL-2 dependent acute lymphoblastic leukemia cell line); assay: RS4;11 Cell Proliferation Assay; assay type: cell-based; conditions: Homo sapiens, RS4-11, RS4;11 cells, read-out: Cellular proliferation assay (IC50, nM) RS4
Outline: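 Viability measured via CellTiter-Glo luminescence after a 48 h, 37 °C exposure to compounds (10 points, highest 1 μM). Seeding was 50,000 RS4;11 cells per well in 10% FBS RPMI-1640; IC50 given as mean.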

[3] = test system: BCL-2 G101V knock-in cell line H96 (derive from RS4;11); assay: Bcl 2-G101V Knock-In RS4;11 Cell Proliferation Assay; assay type: cell-based; conditions: Homo sapiens, RS4;11 Bcl-2 G101V knock-in clone H96, 48 hrs, CellTiter-GLO, read-out: Cellular proliferation assay (IC50, nM) RS4
Outline: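 CellTiter-Glo luminescence after 48 h, 37 °C compound treatment (10 concentrations, maximum 1 μM or 10 μM) gave mean IC50 values. Cells were 50,000 per well of H96, a BCL2-G101V knock-in single clone derived from RS4;11 by Cas9 editing.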

[4] = target: recombinant human Bcl-2 D103Y protein (Homo sapiens (Human), UniProt P10415, D103Y); assay: Bcl-2-D103Y Biochemical Assay (TR-FRET); assay type: binding; conditions: for IC50: TR-FRET, FITC labeled Bak peptide; for Ratio of Bcl-2 D103Y/Bcl-2 WT: ratio of IC50; for ratio of Bcl-2 D103Y/Bcl-2 wt, compared with F91b in WO2019210828: comparison in words
Outline: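 Compounds titrated against the Bcl-2 D103Y–ligand interaction; inhibition derived from the TR-FRET emission ratio 490 nm/520 nm after 337 nm excitation. Four-parameter logistic fitting gave IC50.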

[5] = test system: recombinant human Bcl-2-G101V protein; assay: Bcl-2-G101V TR-FRET Assay; assay type: binding; conditions: ratio of biochemical IC50 Bcl-2 G101V / Bcl-2 WT
Outline: (§1)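 TR-FRET read at excitation 337 nm with emission at 490 nm and 520 nm. Inhibition of Bcl-2-G101V binding to its ligand across increasing compound concentrations was calculated from the 490/520 nm fluorescence ratio, and IC50 values came from four-parameter logistic fits.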

[6] = target: recombinant human Bcl-2-G101V protein (Homo sapiens (Human), UniProt P10415, G101V); assay: Bcl-2-G101V TR-FRET Assay; assay type: binding; conditions: Bcl-2 G101V mutant, TR-FRET; read-out: Biochemical assay (IC50, nM) Bcl-2 G101V
Outline: as §1

[7] = Bcl-2 wild type, TR-FRET, read-out: Biochemical assay (IC50, nM) Bcl-2 WT
[8] = wild type Bcl-2, unit inferred, read-out: Bcl-2 WT

SMILES | IC50 [1, 7] | IC50 [1, 8] | IC50 [2] | IC50 [3] | IC50 [4] | Ratio of Bcl-2 D103Y/Bcl-2 WT [4] | Ratio of Bcl-2 G101V/WT [5] | IC50 [6] | ratio of Bcl-2 D103Y/Bcl-2 wt, compared with F91b in WO2019210828 [4]
Cc1ccc(CN2CCN(C3CC4(CCN(c5ccc(C(=O)NS(=O)(=O)c6ccc(NC[C@H]7CC[C@](C)(O)CC7)c([N+](=O)[O-])c6)c(Oc6cnc7[nH]ccc7c6)c5)CC4)C3)C(c3ccccc3C(C)C)C2)cc1 (stereo partly shown) [Example 30, 2-((1H-pyrrolo[2,3-b]pyridin-5-yl)oxy)-N-((4-((((1r,4r)-4-hydroxy-4-methylcyclohexyl)methyl)amino)-3-nitrophenyl)sulfonyl)-4-(2-(2-(2-isopropylphenyl)-4-(4-methylbenzyl)piperazin-1-yl)-7-azaspiro[3.5]nonan-7-yl) benzamide] | 0.27 nM | 0.27 nM | 0.53 nM | 3.48 nM | 0.42 nM | 1.6 | 4.1 | 1.1 nM | 
CCOc1ccc(CN2CCN(C3CC4(CCN(c5ccc(C(=O)NS(=O)(=O)c6ccc(NC[C@H]7CC[C@](C)(O)CC7)c([N+](=O)[O-])c6)c(Oc6cnc7[nH]ccc7c6)c5)CC4)C3)C(c3ccccc3C(C)C)C2)cc1 (stereo partly shown) [Example 40, 2-((1H-pyrrolo[2,3-b]pyridin-5-yl)oxy)-4-(2-(4-(4-ethoxybenzyl)-2-(2-isopropylphenyl)piperazin-1-yl)-7-azaspiro[3.5]nonan-7-yl)-N-((4-((((1r,4r)-4-hydroxy-4-methylcyclohexyl)methyl)amino)-3-nitrophenyl)sulfonyl)benzamide] | 0.19 nM | 0.19 nM | 0.85 nM | 8.4 nM | 0.72 nM | 3.8 | 6.8 | 1.3 nM | 
CC(C)c1ccccc1C1CN(Cc2ccc(C#N)cc2)CCN1C1CC2(CCN(c3ccc(C(=O)NS(=O)(=O)c4ccc(NC[C@H]5CC[C@](C)(O)CC5)c([N+](=O)[O-])c4)c(Oc4cnc5[nH]ccc5c4)c3)CC2)C1 (stereo partly shown) [Example 42, 2-((1H-pyrrolo[2,3-b]pyridin-5-yl)oxy)-4-(2-(4-(4-cyanobenzyl)-2-(2-isopropylphenyl)piperazin-1-yl)-7-azaspiro[3.5]nonan-7-yl)-N-((4-((((1r,4r)-4-hydroxy-4-methylcyclohexyl)methyl)amino)-3-nitrophenyl)sulfonyl)benzamide] | 0.41 nM | 0.41 nM | 1.8 nM | 13.5 nM | 1.7 nM | 4.1 | 6.1 | 2.5 nM | 
COc1cccc(CN2CCN(C3CC4(CCN(c5ccc(C(=O)NS(=O)(=O)c6cc7c(c([N+](=O)[O-])c6)N[C@H](C[C@H]6CC[C@H](O)CC6)CO7)c(Oc6cnc7[nH]ccc7c6)c5)CC4)C3)C(c3ccccc3C(C)C)C2)c1 (stereo partly shown) [Example 45] | 0.24 nM | 0.24 nM | 0.41 nM | 3.29 nM | 0.54 nM | 2.3 | 4.0 | 0.95 nM | 
COc1ccccc1CN1CCN(C2CC3(CCN(c4ccc(C(=O)NS(=O)(=O)c5ccc(NC[C@H]6CC[C@](C)(O)CC6)c([N+](=O)[O-])c5)c(Oc5cnc6[nH]ccc6c5)c4)CC3)C2)C(c2ccccc2C(C)C)C1 (stereo partly shown) [Example 47, 2-((1H-pyrrolo[2,3-b]pyridin-5-yl)oxy)-N-((4-((((1r,4r)-4-hydroxy-4-methylcyclohexyl)methyl)amino)-3-nitrophenyl)sulfonyl)-4-(2-(2-(2-isopropylphenyl)-4-(2-methoxybenzyl)piperazin-1-yl)-7-azaspiro[3.5]nonan-7-yl) benzamide] | 0.12 nM | 0.12 nM | 1 nM | 5.33 nM | 0.4 nM | 3.3 | 4.4 | 0.53 nM | 
CC(C)c1ccccc1C1CN(Cc2ccc(F)cc2F)CCN1C1CC2(CCN(c3ccc(C(=O)NS(=O)(=O)c4ccc(NC[C@H]5CC[C@](C)(O)CC5)c([N+](=O)[O-])c4)c(Oc4cnc5[nH]ccc5c4)c3)CC2)C1 (stereo partly shown) [Example 50] | 0.18 nM | 0.18 nM | 0.8 nM | 7.9 nM | 1.2 nM | 6.6 | 6.7 | 1.2 nM | 
CC(C)c1ccccc1C1CN(Cc2ccc3c(c2)CCCO3)CCN1C1CC2(CCN(c3ccc(C(=O)NS(=O)(=O)c4ccc(NC[C@H]5CC[C@](C)(O)CC5)c([N+](=O)[O-])c4)c(Oc4cnc5[nH]ccc5c4)c3)CC2)C1 (stereo partly shown) [Example 53, 2-((1H-pyrrolo[2,3-b]pyridin-5-yl)oxy)-4-(2-(4-(chroman-6-ylmethyl)-2-(2-isopropylphenyl)piperazin-1-yl)-7-azaspiro[3.5]nonan-7-yl)-N-((4-((((1r,4r)-4-hydroxy-4-methylcyclohexyl)methyl)amino)-3-nitrophenyl)sulfonyl)benzamide] | 0.17 nM | 0.17 nM | 0.47 nM | 3.1 nM | 0.38 nM | 2.2 | 3.5 | 0.6 nM | 
CC(C)c1ccccc1C1CN(Cc2ccc3sccc3c2)CCN1C1CC2(CCN(c3ccc(C(=O)NS(=O)(=O)c4ccc(NC[C@H]5CC[C@](C)(O)CC5)c([N+](=O)[O-])c4)c(Oc4cnc5[nH]ccc5c4)c3)CC2)C1 (stereo partly shown) [Example 58, 2-((1H-pyrrolo[2,3-b]pyridin-5-yl)oxy)-4-(2-(4-(benzo[b]thiophen-5-ylmethyl)-2-(2-isopropylphenyl)piperazin-1-yl)-7-azaspiro[3.5]nonan-7-yl)-N-((4-((((1r,4r)-4-hydroxy-4-methylcyclohexyl)methyl)amino)-3-nitrophenyl)sulfonyl)benzamide] | 0.62 nM | 0.62 nM | 0.74 nM | 7.6 nM | 1.8 nM | 2.9 | 3.2 | 2 nM | significantly lower
CC(C)c1ccccc1C1CN(Cc2cccc3sccc23)CCN1C1CC2(CCN(c3ccc(C(=O)NS(=O)(=O)c4ccc(NC[C@H]5CC[C@](C)(O)CC5)c([N+](=O)[O-])c4)c(Oc4cnc5[nH]ccc5c4)c3)CC2)C1 (stereo partly shown) [Example 59, 2-((1H-pyrrolo[2,3-b]pyridin-5-yl)oxy)-4-(2-(4-(benzo[b]thiophen-4-ylmethyl)-2-(2-isopropylphenyl)piperazin-1-yl)-7-azaspiro[3.5]nonan-7-yl)-N-((4-((((1r,4r)-4-hydroxy-4-methylcyclohexyl)methyl)amino)-3-nitrophenyl)sulfonyl)benzamide] | 0.73 nM | 0.73 nM | 0.8 nM | 10.4 nM | 3.2 nM | 4.4 | 4.1 | 3 nM | significantly lower
CC(C)c1ccccc1C1CC(Oc2ccccc2)CCN1C1CC2(CCN(c3ccc(C(=O)NS(=O)(=O)c4ccc(NC[C@H]5CC[C@](C)(O)CC5)c([N+](=O)[O-])c4)c(Oc4cnc5[nH]ccc5c4)c3)CC2)C1 (stereo partly shown) [Example 68, 2-((1H-pyrrolo[2,3-b]pyridin-5-yl)oxy)-N-((4-((((1r,4r)-4-hydroxy-4-methylcyclohexyl)methyl)amino)-3-nitrophenyl)sulfonyl)-4-(2-(2-(2-isopropylphenyl)-4-phenoxypiperidin-1-yl)-7-azaspiro [3.5]nonan-7-yl)benzamide] | 0.2 nM | 0.2 nM | 0.47 nM | 4.7 nM | 0.87 nM | 4.3 | 4 | 0.81 nM | significantly lower
CC(C)c1ccccc1C1CN(Cc2cnn(C3CC3)c2)CCN1C1CC2(CCN(c3ccc(C(=O)NS(=O)(=O)c4ccc(NC[C@H]5CC[C@](C)(O)CC5)c([N+](=O)[O-])c4)c(Oc4cnc5[nH]ccc5c4)c3)CC2)C1 (stereo partly shown) [Example 70, 2-((1H-pyrrolo[2,3-b]pyridin-5-yl)oxy)-4-(2-(4-((1-cyclopropyl-1H-pyrazol-4-yl)methyl)-2-(2-isopropylphenyl)piperazin-1-yl)-7-azaspiro[3.5]nonan-7-yl)-N-((4-((((1r,4r)-4-hydroxy-4-methylcyclohexyl)methyl)amino)-3-nitrophenyl)sulfonyl)benzamide] | 0.014 nM | 0.014 nM | 0.38 nM | 1.5 nM | 0.1 nM | 7.1 | 9 | 0.13 nM | 
